Data on eight molecules can be found in patent US20040009511A1, “Identification of compounds which stimulate bone formation using a cell-based screening assay targeting BMP signaling” (priority 2002, published 2004).

Holding throughout (type): cell-based
Assay [1] has as its system 9×SBE-6×OSE2-OC-luc reporter construct in 2T3 C-17 cells. The experiment in a line: Luciferase assay, 9×SBE-6×OSE2-OC-luc reporter stably transfected in 2T3 clone C-17. Further details: Luciferase Activity: unit not given here. To be noted: for Luciferase Activity / Luciferase Activity (fold increase) / Effect on luciferase activity of the reporter construct / Luciferase Activity, value in parentheses (fold increase): 24 hours; for Maximal effect, fold increase in luciferase activity: over the concentrations tested. The method, then:
(§1) An oligonucleotide containing 9 copies of Smad1 response element (9×SBE) and 6 copies of Cbfa1 response element (6×OSE2) was synthesized in the DNA laboratory at University of Texas Health Science Center at San Antonio. The osteocalcin basal promoter (OC, −155/+1) was amplified by Polymerase Chain Reaction (PCR) using mouse genomic DNA as a template and cloned into pGL3 vector. An 9×SBE-6×OSE2 oligonucleotide was cloned upstream of osteocalcin basal promoter.
(§2) C2C12 and 2T3 cells were plated in 6-well culture plates at densities of 4×10^5 and 2×10^5 cells/well and cultured with DMEM or α minimal essential medium (α MEM) supplemented with 10% FCS for 24 hours. A 9×SBE-6×OSE2-OC-luc-reporter construct (2 μg/well) was co-transfected with pcDNA3 empty vector (0.2 mg/well) in C2C12 and 2T3 cells using lipofactamine plus reagents (Gibco/BRL). Forty eight hours later, G418 (200 μg/ml) was added to the culture plates. Four weeks after G418 selection, the G418 resistant cells were plated in 96-well plates at the density of 1 cell/well and cloned by limiting dilution method.
(§3) C2C12 and 2T3 cells, in which 9×SBE-6×OSE2-OC-luc-reporter construct was stably transfected, were plated in 96-well culture plates at densities of 1×10^4 and 0.5×10^4 cells/well and cultured for 24 hours. The medium was changed to fresh medium supplemented with 2% FCS and different growth factors or hormone were added to culture medium for 24 hours or different compounds were added to culture medium for 2, 6, 12, 24 and 48 hours. The cell lysates were extracted and luciferase activities were determined by luciferase assay kit (Promega, Madison, Wis.) using a Luminometer.
(§4) At the end of the incubation, the cell lysates were extracted using lysis buffer and luciferase activities were measured using a luciferase assay kit (Promega).

Assay [2] deals with 9×SBE-6×OSE2-OC-luc reporter construct in C2C12 C-10-62 cells. The experiment in a line: Luciferase assay, 9×SBE-6×OSE2-OC-luc reporter stably transfected in C2C12 clone C-10-62. To be noted: for Maximal effect, fold increase in luciferase activity: over the concentrations tested; for Effect on luciferase activity of the reporter construct: 24 hours. The method, then:
as §1, §2, §3, §4

For assay [3], the system named is 9×SBE-6×OSE2-OC-luc reporter construct. The experiment in a line: Luciferase assay, 9×SBE-6×OSE2-OC-luc reporter construct, cells not specified.
Text: as §1, §3
Further, a reporter construct which contains multiple copies of both Smad1 (SBE) and Cbfa1 (OSE2) response elements (9×SBE-6×OSE2-OC-luc) was made.

Setting [4] is: 2-ME 1.25 μM, 2T3 cell clone 17.
Setting [5] is: 9-cis RA 1.25 μM, 2T3 cell clone 17.
Setting [6] is: 9-cis RA 2.5 μM, 2T3 cell clone 17.
Where [7] appears, read: 9-cis RA 5 μM, 2T3 cell clone 17.
Setting [8] is: 9-cis RA 10 μM, 2T3 cell clone 17.
Where [9] appears, read: All-trans RA 1.25 μM, 2T3 cell clone 17.
The mark [10] stands for this setting: All-trans RA 2.5 μM, 2T3 cell clone 17.
The mark [11] stands for this setting: All-trans RA 5 μM, 2T3 cell clone 17.
[12] abbreviates: All-trans RA 10 μM, 2T3 cell clone 17.
Where [13] appears, read: TN-16 0.039 μM, 2T3 cell clone 17.
Setting [14] is: TN-16 0.078 μM, 2T3 cell clone 17.
Setting [15] is: TN-16 0.156 μM, 2T3 cell clone 17.
Setting [16] is: TN-16 0.3125 μM, 2T3 cell clone 17.
Setting [17] is: TN-16 0.625 μM, 2T3 cell clone 17.
Where [18] appears, read: TN-16 1.25 μM, 2T3 cell clone 17.
The mark [19] stands for this setting: TN-16 2.5 μM, 2T3 cell clone 17.

`COc1cc2c(cc1O)CC[C@@H]1[C@@H]2CC[C@]2(C)[C@@H](O)CC[C@@H]12` [2-ME, 2-methoxyestradiol, reference compound]: the “Luciferase Activity” value worked out at 0.052 in assay [1] (2-ME 0.625 μM, 2T3 cell clone 17); 0.059 in assay [1] (setting [4]); 0.065 in assay [1] (2-ME 2.5 μM, 2T3 cell clone 17); 0.102 in assay [1] (2-ME 5 μM, 2T3 cell clone 17); 0.130 in assay [1] (2-ME 10 μM, 2T3 cell clone 17). Besides, the “Luciferase Activity (fold increase)” value in assay [1] (setting [4]) was found to be 1.2 fold; in assay [1] (2-ME 2.5 μM, 2T3 cell clone 17), 1.3 fold; in assay [1] (2-ME 5 μM, 2T3 cell clone 17), 2.0 fold; in assay [1] (2-ME 10 μM, 2T3 cell clone 17) it was 2.6 fold. Moreover, in assay [1] (2T3 C-17 cells), the “Effect on luciferase activity of the reporter construct” value (from here on “Effect on luciferase activity”) is reported as “stimulated the reporter construct in a dose-dependent manner”.

`CC1=C(/C=C/C(C)=C\C=C\C(C)=C\C(=O)O)C(C)(C)CCC1` [9-cis RA, 9-cis retinoic acid, reference compound]: the “Maximal effect, fold increase in luciferase activity” value (shortened to “Maximal effect, fold increase”) in assay [2] and in assay [1] (2T3 C-17 cells) was 5 fold each time. Besides, the “Luciferase Activity” value in assay [1] (setting [5]) came out at 0.160; in assay [1] (setting [6]) it was 0.160; in assay [1] (setting [7]), 0.164; in assay [1] (setting [8]), 0.226. The “Luciferase Activity, value in parentheses (fold increase)” value was found to be 3.6 fold in assay [1] (setting [5]), 3.6 fold in assay [1] (setting [6]), 3.6 fold in assay [1] (setting [7]) and 5.0 fold in assay [1] (setting [8]).

`CC1=C(/C=C/C(C)=C/C=C/C(C)=C/C(=O)O)C(C)(C)CCC1` [All-trans RA, all-trans retinoic acid, reference compound]: the “Maximal effect, fold increase” value in assay [2] and in assay [1] (2T3 C-17 cells) was 5 fold in each case. Moreover, the “Luciferase Activity” value was found to be 0.113 in assay [1] (setting [9]), 0.142 in assay [1] (setting [10]), 0.164 in assay [1] (setting [11]) and 0.219 in assay [1] (setting [12]). For the same molecule, the “Luciferase Activity, value in parentheses (fold increase)” value in assay [1] (setting [9]) was found to be 2.5 fold; in assay [1] (setting [10]), 3.2 fold; in assay [1] (setting [11]), 3.6 fold; in assay [1] (setting [12]) it was 4.9 fold.

`CC(Nc1ccccc1)=C1C(=O)NC(Cc2ccccc2)C1=O` (centres unmarked) [TN-16, reference compound]: in assay [1] (2T3 C-17 cells), the “Effect on luciferase activity” value was “stimulated the reporter construct in a dose-dependent manner”. In addition, the “Maximal effect, fold increase” value in assay [1] (2T3 C-17 cells) is listed as 5 fold. Further, the “Luciferase Activity” value came out at 0.022 in assay [1] (setting [13]); 0.037 in assay [1] (setting [14]); 0.036 in assay [1] (setting [15]); 0.038 in assay [1] (setting [16]); 0.057 in assay [1] (setting [17]); 0.081 in assay [1] (setting [18]). The “Luciferase Activity” value in assay [1] (setting [19]) amounted to 0.079; in assay [1] (TN-16 5 μM, 2T3 cell clone 17), 0.111; in assay [1] (TN-16 10 μM, 2T3 cell clone 17), 0.098. In addition, the “Luciferase Activity (fold increase)” value turned out to be 0.9 fold in assay [1] (setting [13]); 1.6 fold in assay [1] (setting [14]); 1.6 fold in assay [1] (setting [15]); 1.6 fold in assay [1] (setting [16]); 2.5 fold in assay [1] (setting [17]); 3.5 fold in assay [1] (setting [18]). Also, the “Luciferase Activity (fold increase)” value was determined as 3.4 fold in assay [1] (setting [19]); 4.8 fold in assay [1] (TN-16 5 μM, 2T3 cell clone 17); 4.2 fold in assay [1] (TN-16 10 μM, 2T3 cell clone 17).

For TGF-β, in assay [2], the “Effect on luciferase activity” value is reported as “no significant effects”. The “Luciferase activity normalized to protein content” value in assay [1] (2T3 C-17 cells) was “no significant effect”. For the same molecule, in assay [1] (2T3 C-17 cells), the “Maximal effect, fold increase” value was 3 fold. Besides, the “Luciferase Activity” value was found to be 0.046 in assay [1] (TGF-β 0.0195 ng/ml, 2T3 C-17 cells); 0.052 in assay [1] (TGF-β 0.039 ng/ml, 2T3 C-17 cells); 0.053 in assay [1] (TGF-β 0.078 ng/ml, 2T3 C-17 cells); 0.062 in assay [1] (TGF-β 0.156 ng/ml, 2T3 C-17 cells); 0.08 in assay [1] (TGF-β 0.3125 ng/ml, 2T3 C-17 cells); 0.09 in assay [1] (TGF-β 0.625 ng/ml, 2T3 C-17 cells). Further, the “Luciferase Activity” value stood at 0.102 in assay [1] (TGF-β 1.25 ng/ml, 2T3 C-17 cells); 0.156 in assay [1] (TGF-β 2.5 ng/ml, 2T3 C-17 cells); 0.077 in assay [1] (TGF-β 5 ng/ml, 2T3 C-17 cells); 0.081 in assay [1] (TGF-β 10 ng/ml, 2T3 C-17 cells).

In the case of “acid FGF: Acidic Fibroblast Growth Factor”, the “Effect on luciferase activity” value in assay [2] is given as “no significant effects”. The “Luciferase Activity” value in assay [1] (acid FGF 0.195 ng/ml, 2T3 C-17 cells) is 0.06; in assay [1] (acid FGF 0.39 ng/ml, 2T3 C-17 cells), 0.057; in assay [1] (acid FGF 0.78 ng/ml, 2T3 C-17 cells), 0.058; in assay [1] (acid FGF 1.56 ng/ml, 2T3 C-17 cells) it was 0.051; in assay [1] (acid FGF 3.125 ng/ml, 2T3 C-17 cells) it was 0.052; in assay [1] (acid FGF 6.25 ng/ml, 2T3 C-17 cells) it was 0.054. The “Luciferase Activity” value in assay [1] (acid FGF 12.5 ng/ml, 2T3 C-17 cells) amounted to 0.051; in assay [1] (acid FGF 25 ng/ml, 2T3 C-17 cells) it was 0.052; in assay [1] (acid FGF 50 ng/ml, 2T3 C-17 cells), 0.058; in assay [1] (acid FGF 100 ng/ml, 2T3 C-17 cells) it was 0.075.

B1: PTH: Parathyroid Hormone (protein, UniProt P01270 32-115, looked up)
Parathyroid hormone: SVSEIQLMHNLGKHLNSMERVEWLRKKLQDVHNFVALGAPLAPRDAGSQRPRKKEDNVLVESHEKSLGEADKADVNVLTKAKSQ
modifications: Parathyroid hormone
Take B1: the “Luciferase Activity” value in assay [1] (PTH 0.195 ng/ml, 2T3 C-17 cells) came to 0.05; in assay [1] (PTH 0.39 ng/ml, 2T3 C-17 cells), 0.053; in assay [1] (PTH 0.78 ng/ml, 2T3 C-17 cells) it was 0.047; in assay [1] (PTH 1.56 ng/ml, 2T3 C-17 cells), 0.05; in assay [1] (PTH 3.125 ng/ml, 2T3 C-17 cells) it was 0.05; in assay [1] (PTH 6.25 ng/ml, 2T3 C-17 cells) it was 0.048. Also, the “Luciferase Activity” value in assay [1] (PTH 12.5 ng/ml, 2T3 C-17 cells) was 0.051; in assay [1] (PTH 25 ng/ml, 2T3 C-17 cells), 0.053; in assay [1] (PTH 50 ng/ml, 2T3 C-17 cells), 0.053; in assay [1] (PTH 100 ng/ml, 2T3 C-17 cells), 0.055.

B2: noggin: BMP binding protein noggin (protein, UniProt Q13253 28-232, looked up)
Noggin: QHYLHIRPAPSDNLPLVDLIEHPDPIFDPKEKDLNETLLRSLLGGHYDPGFMATSPPEDRPGGGGGAAGGAEDLAELDQLLRQRPSGAMPSEIKGLEFSEGLAQGKKQRLSKKLRRKLQMWLWSQTFCPVLYAWNDLGSRFWPRYVKVGSCFSKRSCSVPEGMVCKPSKSVHLTVLRWRCQRRGGQRCGWIPIQYPIISECKCSC
Consider B2, for which the “Effect on BMP-2-induced reporter activity” value in assay [3] (500 ng/ml of noggin, 100 ng/ml of BMP-2) is “completely blocked”. In addition, the “Inhibition of BMP-2-induced luciferase activity” value in assay [3] (dose-response) is “inhibit BMP-2-induced luciferase activity in a dose-dependent manner”.
